Experiment [1] addresses VvelCSP1 (Vespa velutina auraria, UniProt A0A384ZVP9). Briefly: Fluorescence competitive binding assay (1-NPN probe) with VvelCSP1. The conditions noted are these: for Ki: VvelCSP1. As to the method: (§1) Fluorescence competitive binding assays were employed to characterize the interactions between VvelCSPs and 13 volatiles shared between the elaiosomes of S. tuberosa and the cuticular hydrocarbons of honeybees. These tests were performed in 1 cm path length quartz cuvettes with an excitation wavelength of 337 nm and emission wavelength scanning from 400–450 nm. The volatiles and the fluorescent probe 1-NPN (1-N-phenylnaphthylamine), listed in Supplementary Table S2, were dissolved in methanol to prepare 100 mM stock solutions, which were then diluted to 1 mM working solutions [25]. To remove any potential endogenous ligands, the purified proteins were delipidated by three washes with an equal volume of dichloromethane (1:1 v/v). Each wash involved a 10-min incubation, and the process was followed by evaporation of the residual solvent under a gentle stream of nitrogen. Purified CSPs were resuspended in 20 mM Tris-HCl buffer (pH 7.5) to a final concentration of 2 μM. Binding parameters for CSP-NPN were determined by titration: 2 mL of CSP solution (2 μM) was titrated with 1-NPN (final concentrations: 2−24 μM). Maximum fluorescence intensity was recorded, and the dissociation constant was calculated. […] After incubation in the dark for 2 min, fluorescence quenching was measured. Half-maximal inhibitory concentration (IC50) values for volatiles were calculated from the competition curves, and their binding constants (Ki) were subsequently derived. The presented data, including IC50 and Ki values, originate from a single experiment under uniform conditions to ensure comparability (Supplementary Table S3).

In experiment [2] the target is VvelCSP4. Briefly: Fluorescence competitive binding assay (1-NPN probe) with VvelCSP4. More on the design: species or system Vespa velutina auraria. As to the method: as §1
[3] abbreviates: VvelCSP4 2 μM, 1-NPN 1 μM, Tris-HCl pH 7.5, single experiment, read-out: IC50 (ligand concentration displacing 50% of the fluorescence intensity of the CSPs/NPN complex).
The mark [4] stands for this setting: VvelCSP4, derived from IC50, read-out: Ki (dissociation constant).
Setting [5] is: VvelCSP4, read-out: IC50 (μM), no binding symbol.
Setting [6] is: VvelCSP4, read-out: Ki (μM), no binding symbol.

Read-outs that look alike come from different tables or passages of the source. Bounds are passed on as bounds.

Sequence of VvelCSP1 (A0A384ZVP9 entry or part of it): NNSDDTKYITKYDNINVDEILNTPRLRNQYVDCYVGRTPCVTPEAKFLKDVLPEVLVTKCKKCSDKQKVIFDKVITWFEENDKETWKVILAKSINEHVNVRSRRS

Regarding `CCCCCCCCCCCCCCCCCCCCCCCC` [Tetracosane], the Raw fluorescence intensity in experiment [1] (VvelCSP1, chemical 0.5 μM) is given as 225.09; in experiment [1] (VvelCSP1, chemical 1 μM) it was 200.88; in experiment [1] (VvelCSP1, chemical 2 μM), 176.79; in experiment [1] (VvelCSP1, chemical 4 μM), 157.66; in experiment [1] (VvelCSP1, chemical 6 μM), 144.05; in experiment [1] (VvelCSP1, chemical 8 μM) it was 131.64. The Raw fluorescence intensity was 122.98 in experiment [1] (VvelCSP1, chemical 12 μM); 117.42 in experiment [1] (VvelCSP1, chemical 16 μM); 216.50 in experiment [2] (VvelCSP4, chemical 0.5 μM); 198.86 in experiment [2] (VvelCSP4, chemical 1 μM); 178.28 in experiment [2] (VvelCSP4, chemical 2 μM); 160.59 in experiment [2] (VvelCSP4, chemical 4 μM). Moreover, the Raw fluorescence intensity in experiment [2] (VvelCSP4, chemical 6 μM) is 153.54; in experiment [2] (VvelCSP4, chemical 8 μM), 132.96; in experiment [2] (VvelCSP4, chemical 12 μM) it was 126.27; in experiment [2] (VvelCSP4, chemical 16 μM) it was 122.27. For the same compound, in experiment [2] (setting [3]), the IC50 was found to be 18.9 µM. Besides, the Ki in experiment [2] (setting [4]) came out at 14.2 µM.
Consider `CCCCCCCCCCCCCCCCCCCC` [Eicosane], for which the Raw fluorescence intensity in experiment [1] (VvelCSP1, chemical 0.5 μM) is 246.85; in experiment [1] (VvelCSP1, chemical 1 μM), 234.09; in experiment [1] (VvelCSP1, chemical 2 μM), 206.27; in experiment [1] (VvelCSP1, chemical 4 μM), 199.36; in experiment [1] (VvelCSP1, chemical 6 μM), 183.72; in experiment [1] (VvelCSP1, chemical 8 μM), 175.07. In addition, the Raw fluorescence intensity in experiment [1] (VvelCSP1, chemical 12 μM) was found to be 172.10; in experiment [1] (VvelCSP1, chemical 16 μM), 170.22; in experiment [2] (VvelCSP4, chemical 0.5 μM) it was 192.14; in experiment [2] (VvelCSP4, chemical 1 μM), 182.38; in experiment [2] (VvelCSP4, chemical 2 μM), 164.23; in experiment [2] (VvelCSP4, chemical 4 μM), 154.96. The Raw fluorescence intensity in experiment [2] (VvelCSP4, chemical 6 μM) is on record as 139.00; in experiment [2] (VvelCSP4, chemical 8 μM), 133.35; in experiment [2] (VvelCSP4, chemical 12 μM) it was 128.24; in experiment [2] (VvelCSP4, chemical 16 μM) it was 125.62. In experiment [2] (setting [5]), the IC50 was greater than 24 µM. For the same compound, in experiment [2] (setting [6]), the Ki is greater than 18 µM.
Consider `CCCCCCCCCCCCCCCCCCCCCCCCCCCCCC` [Triacontane], for which the Raw fluorescence intensity in experiment [1] (VvelCSP1, chemical 0.5 μM) is reported as 211.63; in experiment [1] (VvelCSP1, chemical 1 μM), 196.09; in experiment [1] (VvelCSP1, chemical 2 μM), 180.51; in experiment [1] (VvelCSP1, chemical 4 μM) it was 166.41; in experiment [1] (VvelCSP1, chemical 6 μM), 152.93; in experiment [1] (VvelCSP1, chemical 8 μM) it was 143.85. Besides, the Raw fluorescence intensity in experiment [1] (VvelCSP1, chemical 12 μM) is listed as 139.39; in experiment [1] (VvelCSP1, chemical 16 μM) it was 137.14; in experiment [2] (VvelCSP4, chemical 0.5 μM) it was 216.07; in experiment [2] (VvelCSP4, chemical 1 μM) it was 200.62; in experiment [2] (VvelCSP4, chemical 2 μM), 183.85; in experiment [2] (VvelCSP4, chemical 4 μM) it was 171.56. The Raw fluorescence intensity in experiment [2] (VvelCSP4, chemical 6 μM) amounted to 162.42; in experiment [2] (VvelCSP4, chemical 8 μM), 148.29; in experiment [2] (VvelCSP4, chemical 12 μM), 139.28; in experiment [2] (VvelCSP4, chemical 16 μM), 135.24. Besides, the IC50 in experiment [2] (setting [5]) is greater than 24 µM. Further, the Ki in experiment [2] (setting [6]) was greater than 18 µM.
For the compound `CCCCCCCCCCCCCCCCCCCCCCCCCCC` [Heptacosane], the Raw fluorescence intensity in experiment [1] (VvelCSP1, chemical 0.5 μM) is 222.51; in experiment [1] (VvelCSP1, chemical 1 μM), 205.55; in experiment [1] (VvelCSP1, chemical 2 μM) it was 159.00; in experiment [1] (VvelCSP1, chemical 4 μM), 136.99; in experiment [1] (VvelCSP1, chemical 6 μM), 130.11; in experiment [1] (VvelCSP1, chemical 8 μM), 123.81. The Raw fluorescence intensity in experiment [1] (VvelCSP1, chemical 12 μM) was found to be 117.37; in experiment [1] (VvelCSP1, chemical 16 μM), 115.92; in experiment [2] (VvelCSP4, chemical 0.5 μM), 218.17; in experiment [2] (VvelCSP4, chemical 1 μM) it was 194.71; in experiment [2] (VvelCSP4, chemical 2 μM), 172.10; in experiment [2] (VvelCSP4, chemical 4 μM), 154.91. In addition, the Raw fluorescence intensity in experiment [2] (VvelCSP4, chemical 6 μM) came to 140.68; in experiment [2] (VvelCSP4, chemical 8 μM), 130.60; in experiment [2] (VvelCSP4, chemical 12 μM) it was 128.65; in experiment [2] (VvelCSP4, chemical 16 μM) it was 125.52. The IC50 in experiment [2] (setting [3]) amounted to 6.2 µM. Also, the Ki in experiment [2] (setting [4]) came to 4.6 µM.
In the case of `CCCCCCCCCCCCCCCCCCCCCCCCCCCC` [Octacosane], the Raw fluorescence intensity came out at 200.77 in experiment [1] (VvelCSP1, chemical 0.5 μM); 192.40 in experiment [1] (VvelCSP1, chemical 1 μM); 162.06 in experiment [1] (VvelCSP1, chemical 2 μM); 146.64 in experiment [1] (VvelCSP1, chemical 4 μM); 135.22 in experiment [1] (VvelCSP1, chemical 6 μM); 131.33 in experiment [1] (VvelCSP1, chemical 8 μM). The Raw fluorescence intensity in experiment [1] (VvelCSP1, chemical 12 μM) amounted to 127.20; in experiment [1] (VvelCSP1, chemical 16 μM), 124.62; in experiment [2] (VvelCSP4, chemical 0.5 μM), 227.35; in experiment [2] (VvelCSP4, chemical 1 μM), 213.99; in experiment [2] (VvelCSP4, chemical 2 μM), 194.19; in experiment [2] (VvelCSP4, chemical 4 μM) it was 182.58. The Raw fluorescence intensity in experiment [2] (VvelCSP4, chemical 6 μM) is reported as 174.55; in experiment [2] (VvelCSP4, chemical 8 μM), 162.14; in experiment [2] (VvelCSP4, chemical 12 μM), 156.02; in experiment [2] (VvelCSP4, chemical 16 μM), 154.11. In experiment [2] (setting [5]), the IC50 is greater than 24 µM. Also, the Ki in experiment [2] (setting [6]) is greater than 18 µM.
For `CCCCCCCCCCCCCCCCCCC` [Nanadecane], the IC50 in experiment [1] (VvelCSP1 2 μM, 1-NPN 1 μM, Tris-HCl pH 7.5, single experiment, read-out: IC50 (ligand concentration displacing 50% of the fluorescence intensity of the CSPs/NPN complex)) was determined as 18.2 µM; in experiment [2] (setting [3]), 10.4 µM. Also, the Raw fluorescence intensity in experiment [1] (VvelCSP1, chemical 0.5 μM) is 223.11; in experiment [1] (VvelCSP1, chemical 1 μM), 209.38; in experiment [1] (VvelCSP1, chemical 2 μM), 178.27; in experiment [1] (VvelCSP1, chemical 4 μM), 171.35; in experiment [1] (VvelCSP1, chemical 6 μM), 158.50; in experiment [1] (VvelCSP1, chemical 8 μM), 148.00. Besides, the Raw fluorescence intensity in experiment [1] (VvelCSP1, chemical 12 μM) turned out to be 140.37; in experiment [1] (VvelCSP1, chemical 16 μM), 133.91; in experiment [2] (VvelCSP4, chemical 0.5 μM), 238.31; in experiment [2] (VvelCSP4, chemical 1 μM), 207.32; in experiment [2] (VvelCSP4, chemical 2 μM), 185.38; in experiment [2] (VvelCSP4, chemical 4 μM), 167.28. For the same compound, the Raw fluorescence intensity in experiment [2] (VvelCSP4, chemical 6 μM) amounted to 153.91; in experiment [2] (VvelCSP4, chemical 8 μM) it was 144.81; in experiment [2] (VvelCSP4, chemical 12 μM) it was 135.70; in experiment [2] (VvelCSP4, chemical 16 μM) it was 129.34. Moreover, the Ki in experiment [1] (derived from IC50, read-out: Ki (dissociation constant)) was 14.5 µM; in experiment [1] (read-out: Binding affinity class (by Ki)), greater than 10 µM; in experiment [2] (setting [4]) it was 7.89 µM; in experiment [2] (VvelCSP4, read-out: Binding affinity class (by Ki)), 5 to 10 µM.
Turning to `CCCCCCCCCCCCCCCCCCCCCCC` [Tricosane], the Raw fluorescence intensity in experiment [1] (VvelCSP1, chemical 0.5 μM) is reported as 193.01; in experiment [1] (VvelCSP1, chemical 1 μM), 170.16; in experiment [1] (VvelCSP1, chemical 2 μM), 140.89; in experiment [1] (VvelCSP1, chemical 4 μM) it was 116.63; in experiment [1] (VvelCSP1, chemical 6 μM), 101.34; in experiment [1] (VvelCSP1, chemical 8 μM) it was 94.22. Also, the Raw fluorescence intensity amounted to 88.89 in experiment [1] (VvelCSP1, chemical 12 μM); 86.00 in experiment [1] (VvelCSP1, chemical 16 μM); 207.46 in experiment [2] (VvelCSP4, chemical 0.5 μM); 177.45 in experiment [2] (VvelCSP4, chemical 1 μM); 153.67 in experiment [2] (VvelCSP4, chemical 2 μM); 134.98 in experiment [2] (VvelCSP4, chemical 4 μM). Further, the Raw fluorescence intensity came out at 119.90 in experiment [2] (VvelCSP4, chemical 6 μM); 111.62 in experiment [2] (VvelCSP4, chemical 8 μM); 110.10 in experiment [2] (VvelCSP4, chemical 12 μM); 107.68 in experiment [2] (VvelCSP4, chemical 16 μM). The IC50 in experiment [2] (setting [3]) was determined as 5.09 µM. In addition, the inhibitory constant (Ki) in experiment [2] (setting [4]) is 3.85 µM.

As a reminder, the Ki is a measure of affinity in units of concentration, obtained from inhibition or displacement.

The values above are taken from publication PMC12652730, “The Chemoreceptive Molecular Mechanism Underlying CSP-Mediated Recognition of Seed Elaiosome from Stemona tuberosa by Hornets” (Genes, 2025).
